Experimental data: patent US20200354426A1 (MEDIMMUNE LIMITED, priority 2016, published 2020)
Like-named read-outs stand apart in the source and are kept apart here. Numbered stars: 1 amine (or outer) side, 2 acyl side, 3 side chain; on linkers, the order of the positions; unused ones are H or OH. Side chains are listed from the residue outwards. Peptide text beside a SMILES is read from it. * marks the point of attachment. γGlu = O=C(O)[C@H](CCC(=O)[*:2])N[*:1]; Palmitoyl = CCCCCCCCCCCCCCCC(=O)*

Assays:
[1] = molecular target: T1, Human GlucR (Homo sapiens, UniProt P47871); test: cAMP assay in 4.4% human serum albumin (assay 2); format: cell-based
T1 construct: expressed in transfected cells
Protocol: Cryopreserved cell stocks were prepared in 1× cell freezing medium-DMSO serum free (Sigma Aldrich) at 2×10^7/vial and stored at −80° C. […] Peptides were serially diluted in DMSO and then diluted 100 fold into DMEM containing serum albumin at stated final concentration. […] Cells were added to the assay plates and incubated for 30 min at room temperature. Following incubation the assay was stopped and cAMP levels measured using the HTRF® dynamic d2 cAMP assay kit available from CisBio Bioassays, as per the manufacture's guidelines. Plates were read on Perkin Elmer ENVISION® fluorescence plate readers. Human and rat serum albumin were purchased from Sigma Aldrich and mouse serum albumin from Equitech Bio Ltd.
Data was transformed to % Delta F as described in manufacturer's guidelines and analysed by 4-parameter logistic fit to determine EC50 values. […] For instance. […] To compare the balance of activities at the GLP1R and GlucR between different peptides and across different conditions, these can be correlated using the calculation below, where the EC50's are related to those of the natural ligands.

[2] = Peptide solubility in buffers (A280); format: physicochemical
Text: G730 was soluble in a pH range of 4.5 to 8.0.

[3] = molecular target: Human GLP1R (Homo sapiens, UniProt P43220)
[4] = Stability testing of peptides in plasma; format: in vitro ADME, human
Protocol: The stability in plasma of the peptideS […], […], […] and […] was determined as follows. […] The spiked plasma samples were gently mixed and allowed to equilibrate for about 5 minutes before start of experiment. The plasma samples were incubated for 48 hours in a GalaxyR CO2 incubator at 37° C. […] The samples were stored at -70° C. until analysis. Plasma samples were assayed as follows. […] After mixing and centrifugation, 100 μl the supernatant was transferred to a new plate and 1 μl was injected onto an analytical column. The analysis was performed using a μLC-system ([…]) coupled to a medium high resolution mass spectrometer (Perkin Elmer PenTOF) with positive electrospray ionisation. […] Flow: 0.1 ml/min using a slow reversed phase gradient. […] Cleavage products arise from the action of the protease DPP IV in plasma. Both the degradation of the peptides and formation of peptide products were reported in percentage of the initial peptide concentration. Peaks were integrated and % remaining peptide was calculated: […] Levels of deamidation and DPP IV cleavage were low for […] and […].

[5] = molecular target: T1, Human GlucR; test: cAMP activity assay in assay medium (assay 1); format: cell-based; conditions: assay medium
Text: (§1) Biological Activity of Peptides in Cell-Based cAMP Activity Assay (Assay 1):
(§2) All sample dilutions were made in duplicate.

[6] = molecular target: T2, Human GIPr (Homo sapiens, UniProt P48546); test: cAMP activity assay in assay medium (assay 1); format: cell-based; conditions: assay medium
T2 construct: expressed in transfected cells
T2 sequence (P48546 22-466): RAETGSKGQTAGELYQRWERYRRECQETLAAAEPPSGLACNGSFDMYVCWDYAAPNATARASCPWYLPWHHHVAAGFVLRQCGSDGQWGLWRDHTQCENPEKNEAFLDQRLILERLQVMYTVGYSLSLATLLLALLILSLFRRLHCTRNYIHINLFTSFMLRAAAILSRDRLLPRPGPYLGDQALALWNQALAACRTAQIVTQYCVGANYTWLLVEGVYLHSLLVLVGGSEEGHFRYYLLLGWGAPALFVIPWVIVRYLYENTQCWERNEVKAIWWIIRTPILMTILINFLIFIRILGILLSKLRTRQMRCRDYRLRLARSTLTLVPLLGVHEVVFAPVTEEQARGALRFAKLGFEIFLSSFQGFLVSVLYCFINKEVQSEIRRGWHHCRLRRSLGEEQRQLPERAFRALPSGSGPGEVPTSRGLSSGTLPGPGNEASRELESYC
Text: as §1, §2

T1 sequence (P47871 26-477): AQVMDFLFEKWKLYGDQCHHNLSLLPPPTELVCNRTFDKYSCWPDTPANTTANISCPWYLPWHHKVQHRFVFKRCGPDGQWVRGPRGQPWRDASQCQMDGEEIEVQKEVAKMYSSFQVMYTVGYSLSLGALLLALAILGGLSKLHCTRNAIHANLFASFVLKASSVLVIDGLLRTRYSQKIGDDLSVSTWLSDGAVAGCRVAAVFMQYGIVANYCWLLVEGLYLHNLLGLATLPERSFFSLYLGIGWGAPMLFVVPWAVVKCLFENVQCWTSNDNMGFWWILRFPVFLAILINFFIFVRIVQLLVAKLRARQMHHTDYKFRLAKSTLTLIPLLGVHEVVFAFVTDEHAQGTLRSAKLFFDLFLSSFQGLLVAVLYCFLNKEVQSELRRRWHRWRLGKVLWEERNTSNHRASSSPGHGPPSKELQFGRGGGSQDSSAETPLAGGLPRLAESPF
Chain of Human GLP1R (P43220 24-463): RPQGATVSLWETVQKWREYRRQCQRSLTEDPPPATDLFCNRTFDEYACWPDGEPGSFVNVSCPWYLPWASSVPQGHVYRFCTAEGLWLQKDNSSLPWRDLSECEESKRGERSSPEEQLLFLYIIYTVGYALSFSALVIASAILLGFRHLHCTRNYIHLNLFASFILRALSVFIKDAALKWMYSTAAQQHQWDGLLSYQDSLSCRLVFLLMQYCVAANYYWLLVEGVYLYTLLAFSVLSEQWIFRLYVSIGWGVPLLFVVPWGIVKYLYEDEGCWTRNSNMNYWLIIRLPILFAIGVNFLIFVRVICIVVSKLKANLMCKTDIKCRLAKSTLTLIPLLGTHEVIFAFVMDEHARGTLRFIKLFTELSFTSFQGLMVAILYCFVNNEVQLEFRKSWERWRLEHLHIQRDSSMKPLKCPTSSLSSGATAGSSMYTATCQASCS

CCCCCCCCCCCCCCCC(=O)N[C@@H](CCC(=O)NCCCC[C@H](NC(=O)[C@H](CCCCN)NC(=O)[C@H](CO)NC(=O)[C@H](Cc1ccc(O)cc1)NC(=O)[C@H](CC(=O)O)NC(=O)[C@H](CO)NC(=O)[C@@H](NC(=O)[C@H](Cc1ccccc1)NC(=O)[C@@H](NC(=O)CNC(=O)[C@H](CCC(N)=O)NC(=O)[C@H](CO)NC(=O)[C@@H](N)Cc1c[nH]cn1)[C@@H](C)O)[C@@H](C)O)C(=O)N[C@@H](CC(C)C)C(=O)N[C@@H](CC(=O)O)C(=O)N[C@@H](CO)C(=O)N[C@@H](CCC(=O)O)C(=O)N[C@@H](CCCNC(=N)N)C(=O)N[C@@H](C)C(=O)N[C@@H](CCCNC(=N)N)C(=O)N[C@@H](CC(=O)O)C(=O)N[C@@H](Cc1ccccc1)C(=O)N[C@H](C(=O)N[C@@H](C)C(=O)N[C@@H](Cc1c[nH]c2ccccc12)C(=O)N[C@@H](CC(C)C)C(=O)N[C@H](C(=O)N[C@@H](C)C(=O)NCC(=O)NCC(N)=O)C(C)C)C(C)C)C(=O)O [Peptide G730] (H-HSQGTFTSDYSKK([γGlu-Palmitoyl])LDSERARDFVAWLVAGG-NH2; N-terminus assumed)
EC50 [1]: 0.402 nM
Human GlucR/GLP1R Ratio ([1]; relative potency GlucR / relative potency GLP1R vs natural ligands): 0.122
Conc. (A280), target 1 mg/ml ([2]; Glutamate pH 4.5, 100 mM): 0.83 mg/mL
Conc. (A280), target 1 mg/ml ([2]; Phosphate pH 6.5, 100 mM): 0.83 mg/mL
Conc. (A280), target 1 mg/ml ([2]; Phosphate pH 7.5, 100 mM): 0.85 mg/mL
Conc. (A280), target 1 mg/ml ([2]; Phosphate, pH = 6, 100 mM): 0.14 mg/mL
Conc. (A280), target 1 mg/ml ([2]; Tris pH 7.5, 100 mM): 0.83 mg/mL
Conc. (A280), target 1 mg/ml ([2]; Tris pH 8.0, 100 mM): 1.1 mg/mL
free peptide at 4.4% HSA [3]: 0.85%
% +1 prod [4]: <1%
% DPP cleaved product/+1 DPP cleaved product [4]: <1%
remaining at 24 h, 2 μmol/L ([4]; human, plasma): 100%
EC50 ([5]; Table 2, C-terminal amide peptides, read-out: Human GlucR EC50): 0.00623 nM
EC50 ([5]; Table 4, read-out: hGlucR EC50): 0.015 nM
EC50 ([6]; Table 2, C-terminal amide peptides, read-out: Human GIPr EC50): 45 nM
EC50 ([6]; Table 4, read-out: hGIPR EC50): 56.6 nM
